Measurements as given in ChEMBL document CHEMBL1141558, “Design and synthesis of a siderophore conjugate as a potent PSMA inhibitor and potential diagnostic agent for prostate cancer” (Bioorg Med Chem, 2008).

Key:
[1] = target: T1, Glutamate carboxypeptidase 2 (Homo sapiens, UniProt Q04609); test: Inhibition of human recombinant NAALADase
[2] = target: T1, Glutamate carboxypeptidase 2; test: Inhibition of NAALADase expressed in LNCaP human prostate cancer cells; format: cell-based

T1 sequence (Q04609 whole entry): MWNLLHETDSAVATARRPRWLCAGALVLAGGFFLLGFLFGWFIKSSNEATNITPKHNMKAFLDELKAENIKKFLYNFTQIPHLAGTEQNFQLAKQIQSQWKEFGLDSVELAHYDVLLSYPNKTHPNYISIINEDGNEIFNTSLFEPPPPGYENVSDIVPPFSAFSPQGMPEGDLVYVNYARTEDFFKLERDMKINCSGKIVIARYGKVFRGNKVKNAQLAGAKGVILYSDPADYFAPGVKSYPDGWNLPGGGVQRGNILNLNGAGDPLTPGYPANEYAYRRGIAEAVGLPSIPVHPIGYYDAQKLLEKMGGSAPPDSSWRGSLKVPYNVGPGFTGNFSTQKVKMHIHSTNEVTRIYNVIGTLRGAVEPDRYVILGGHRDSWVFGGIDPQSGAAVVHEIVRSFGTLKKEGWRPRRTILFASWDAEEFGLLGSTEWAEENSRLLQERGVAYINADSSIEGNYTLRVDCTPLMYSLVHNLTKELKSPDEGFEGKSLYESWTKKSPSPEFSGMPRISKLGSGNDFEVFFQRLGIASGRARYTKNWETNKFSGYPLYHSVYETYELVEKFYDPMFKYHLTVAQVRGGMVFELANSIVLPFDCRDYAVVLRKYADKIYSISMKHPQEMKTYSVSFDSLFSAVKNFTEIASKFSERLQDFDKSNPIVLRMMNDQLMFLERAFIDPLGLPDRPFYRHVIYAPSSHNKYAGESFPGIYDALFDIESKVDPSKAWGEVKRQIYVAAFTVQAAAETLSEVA

CC(=O)N[C@@H](CCCN(O)C(C)=O)C(=O)N[C@@H](CCCN(O)C(C)=O)C(=O)N[C@@H](CCCN(O)C(C)=O)C(=O)NCCCC(=O)c1ccc(C(=O)NCC(=O)Nc2ccc(CCOP(=O)(O)C[C@@H](CCC(=O)O)C(=O)O)cc2)cc1
IC50 [1]: 4 nM

O=C(O)CCC(CP(=O)(O)OCc1ccccc1)C(=O)O (configuration not stated)
IC50 [2]: 12.5 nM
